From ChEMBL document CHEMBL2331167, “Inhibitory effect of novel somatostatin peptide analogues on human cancer cell growth based on the selective inhibition of DNA polymerase β” (Bioorg Med Chem, 2013) come the findings set out here.

Each structure is given as a SMILES string. The source made the active and inactive calls. No cut-off for these calls is given here. Bounds are passed on as bounds.

Experiment [1] deals with HCT-116. Put plainly: Induction of apoptosis in p53 +/+ human HCT116 cells assessed as DNA fragmentation at 13.2 uM incubated for 24 hrs by agarose gel electrophoresis. In kind it is functional, cell-based.
Experiment [2] deals with T1, DNA polymerase delta catalytic subunit (Homo sapiens, UniProt P28340).
T1 sequence (P28340 whole entry): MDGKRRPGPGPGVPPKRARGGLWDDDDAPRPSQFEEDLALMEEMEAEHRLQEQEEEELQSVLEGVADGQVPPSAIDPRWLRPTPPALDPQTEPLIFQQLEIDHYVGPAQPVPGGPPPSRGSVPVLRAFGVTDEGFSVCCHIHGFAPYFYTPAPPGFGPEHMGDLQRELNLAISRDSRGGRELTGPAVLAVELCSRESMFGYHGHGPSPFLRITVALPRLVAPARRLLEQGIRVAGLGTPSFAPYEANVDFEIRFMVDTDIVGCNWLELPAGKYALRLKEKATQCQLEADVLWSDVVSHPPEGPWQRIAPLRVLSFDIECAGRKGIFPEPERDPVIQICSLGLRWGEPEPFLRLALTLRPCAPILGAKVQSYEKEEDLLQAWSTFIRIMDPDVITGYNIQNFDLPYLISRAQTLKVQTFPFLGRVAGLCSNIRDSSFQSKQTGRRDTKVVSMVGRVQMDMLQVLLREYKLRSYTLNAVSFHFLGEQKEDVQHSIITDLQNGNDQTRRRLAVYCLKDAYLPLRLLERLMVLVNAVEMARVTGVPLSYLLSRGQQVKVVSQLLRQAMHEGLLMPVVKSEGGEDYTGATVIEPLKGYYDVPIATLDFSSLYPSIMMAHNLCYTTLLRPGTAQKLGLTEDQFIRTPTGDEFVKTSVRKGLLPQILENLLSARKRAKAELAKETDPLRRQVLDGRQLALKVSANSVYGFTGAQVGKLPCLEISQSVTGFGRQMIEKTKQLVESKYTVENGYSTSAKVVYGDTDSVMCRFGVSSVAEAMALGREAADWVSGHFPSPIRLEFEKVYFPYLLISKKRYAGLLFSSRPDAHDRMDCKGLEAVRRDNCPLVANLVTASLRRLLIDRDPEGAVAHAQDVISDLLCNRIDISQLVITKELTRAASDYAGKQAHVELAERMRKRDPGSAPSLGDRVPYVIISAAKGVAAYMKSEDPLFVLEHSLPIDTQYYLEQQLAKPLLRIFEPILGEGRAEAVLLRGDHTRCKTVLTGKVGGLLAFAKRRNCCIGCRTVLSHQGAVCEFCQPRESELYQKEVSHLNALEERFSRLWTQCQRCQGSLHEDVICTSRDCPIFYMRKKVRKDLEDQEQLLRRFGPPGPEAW
Kind of experiment: Inhibition of human DNA polymerase delta using poly(dA)/oligo(dT)18 (A/T, 2/1)/dTTP DNA template-primer substrate measured at 37 degC for 60 mins.

Experiment [3] deals with DNA-directed DNA/RNA polymerase mu (Homo sapiens, UniProt Q9NP87). Put plainly: Inhibition of human DNA polymerase mu using poly(dA)/oligo(dT)18 (A/T, 2/1)/dTTP DNA template-primer substrate measured at 37 degC for 60 mins.
Chain of DNA-directed DNA/RNA polymerase mu (Q9NP87 whole entry): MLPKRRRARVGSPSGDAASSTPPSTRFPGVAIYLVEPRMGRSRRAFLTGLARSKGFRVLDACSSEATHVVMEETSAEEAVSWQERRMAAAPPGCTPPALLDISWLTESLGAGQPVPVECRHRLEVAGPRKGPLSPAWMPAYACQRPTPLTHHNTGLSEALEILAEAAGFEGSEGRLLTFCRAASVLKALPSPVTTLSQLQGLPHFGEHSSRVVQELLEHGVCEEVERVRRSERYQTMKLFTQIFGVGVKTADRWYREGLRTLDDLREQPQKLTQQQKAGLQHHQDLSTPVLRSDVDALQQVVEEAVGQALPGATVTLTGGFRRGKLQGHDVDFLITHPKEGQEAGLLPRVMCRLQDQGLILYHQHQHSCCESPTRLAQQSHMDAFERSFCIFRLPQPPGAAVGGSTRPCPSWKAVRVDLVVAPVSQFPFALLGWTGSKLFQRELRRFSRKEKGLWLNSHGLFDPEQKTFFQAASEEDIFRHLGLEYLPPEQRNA
For the next experiment, the target named is DNA polymerase beta (Rattus norvegicus, UniProt P06766). Put plainly: Inhibition of rat DNA polymerase beta using poly(dA)/oligo(dT)18 (A/T, 2/1)/dTTP DNA template-primer substrate measured at 37 degC for 60 mins.
Experiment [4] deals with HCT-116. Kind of experiment: Cytotoxicity against p53 +/+ human HCT116 cells assessed as growth inhibition incubated for 24 hrs by WST-1 assay. The experiment is classed as functional. Particulars: HCT-116, 24 h, read-out: LD50 (the source's name).
The subject of experiment [5] is HCT-116. Kind of experiment: Cytotoxicity against p53 +/+ human HCT116 cells assessed as growth inhibition at 200 uM incubated for 24 hrs by WST-1 assay. The experiment is classed as functional, cell-based.
Experiment [6] is described as follows: Inhibition of calf DNA polymerase alpha using poly(dA)/oligo(dT)18 (A/T, 2/1)/dTTP DNA template-primer substrate measured at 37 degC for 60 mins. More on the design: species or system Bos taurus.
Experiment [7] has as its system HCT-116. Kind of experiment: Induction of apoptosis in p53 -/- human HCT116 cells assessed as apoptotic cells at 13.7 uM incubated for 24 hrs by TUNEL analysis. The experiment is classed as functional, cell-based.
For experiment [8], the system named is HCT-116. Put plainly: Induction of apoptosis in p53 +/+ human HCT116 cells assessed as apoptotic cells at 13.2 uM incubated for 24 hrs by TUNEL analysis. The experiment is classed as functional.
The next experiment addresses T2, DNA polymerase eta (Homo sapiens, UniProt Q9Y253).
T2 sequence (Q9Y253 whole entry): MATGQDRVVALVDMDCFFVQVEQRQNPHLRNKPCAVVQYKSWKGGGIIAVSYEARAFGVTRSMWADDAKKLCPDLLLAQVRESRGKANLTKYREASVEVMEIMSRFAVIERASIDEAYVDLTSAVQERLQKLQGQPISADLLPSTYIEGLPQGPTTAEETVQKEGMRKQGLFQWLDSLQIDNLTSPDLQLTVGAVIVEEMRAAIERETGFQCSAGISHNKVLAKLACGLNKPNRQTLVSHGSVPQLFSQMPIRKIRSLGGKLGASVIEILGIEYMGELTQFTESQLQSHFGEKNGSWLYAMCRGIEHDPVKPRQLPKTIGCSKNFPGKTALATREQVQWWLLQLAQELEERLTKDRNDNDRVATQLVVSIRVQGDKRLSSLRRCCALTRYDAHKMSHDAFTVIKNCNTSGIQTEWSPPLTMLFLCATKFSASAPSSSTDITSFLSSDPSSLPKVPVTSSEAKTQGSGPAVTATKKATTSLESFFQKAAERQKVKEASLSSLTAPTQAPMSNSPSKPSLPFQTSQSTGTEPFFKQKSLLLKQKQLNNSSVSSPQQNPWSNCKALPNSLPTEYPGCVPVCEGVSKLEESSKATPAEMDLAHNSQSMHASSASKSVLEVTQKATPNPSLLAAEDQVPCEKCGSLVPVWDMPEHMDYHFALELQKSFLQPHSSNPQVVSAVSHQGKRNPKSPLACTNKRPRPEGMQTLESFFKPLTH
Kind of experiment: Inhibition of human DNA polymerase eta using poly(dA)/oligo(dT)18 (A/T, 2/1)/dTTP DNA template-primer substrate measured at 37 degC for 60 mins.

Experiment [9] is described as follows: Inhibition of human DNA polymerase epsilon using poly(dA)/oligo(dT)18 (A/T, 2/1)/dTTP DNA template-primer substrate measured at 37 degC for 60 mins.

The term IC50 denotes the concentration that gives 50% inhibition. Low readings indicate higher potency, high ones lower potency. For `CC[C@H](C)[C@H](NC(=O)[C@H](Cc1ccc(O)cc1)NC(=O)OC(C)(C)C)C(=O)Nc1cccc2ccccc12`, the result in the experiment on HCT-116 [1] and with HCT-116 [7] was Active. Besides, the IC50 was over 200 µM in experiment [2]; over 200 µM in experiment [3]; 11.5 µM at DNA polymerase beta; over 200 µM in [6]; over 200 µM on DNA polymerase eta; over 200 µM in [9]. Also, the CC50 with HCT-116 [4] was 13.2 µM. Further, the “growth inhibition (GI)” value in the experiment on HCT-116 [5] was “Active”. In the experiment on HCT-116 [8], the “fold change (FC)” value came to 5.
